Patent US7772197B2, “1,3,5-triazines for treatment of viral diseases” (1,3,5-Triazines for Treatment of Viral Diseases, priority 2002, dated 2010)

Tests used:
[1] = Pharmacokinetics of DHAdC base and DHAdC-palmitate in rats; type: in vivo; settings: rat, plasma, IV
mitochondrial DNA = assay: Mitochondrial toxicity (lactate production, mitochondrial DNA); type: cell-based; settings: highest dose tested, 320 μM, data not shown
Procedure: Mitochondrial toxicity is also a safety concern with nucleoside analogs. SN1212 was also analyzed for mitochondrial toxicity. […] (Data not shown.)

[2] = Toxicology in SCID-Hu Thy/Liv mice; type: in vivo; settings: up to 100 mg/kg/day subcutaneously, 21 days
Procedure: (§1) After completion of this toxicology experiment, SN1212 was tested in HIV infected SCID-Hu mice. […] The discordance between viral infectivity and conventional surrogate markers of viral load, such as p24 or HIV RNA, is not surprising, as it has also been observed in vitro, and reflects the increased proportion of non-infectious viral particles in the presence of SN1212. It is also interesting to note that, of the treated groups, the immunologic profile of the SN1212 groups most closely resemble that of the uninfected group. This is compatible with the finding that infection with less “fit” viruses provides a relative clinical benefit by preserving cellular immunity.

[3] = system: reverse transcriptase of HIV NL4-3; assay: DHAdC viral mutagenicity, sense strand of RT fragment; type: cell-based; settings: 50 μM
Procedure: The viral genomic DNA from cells treated with the deoxyribonucleoside analog 5-aza-dC (30 μM) was purified using a Qiagen DNeasy® Kit. 1 μg of genomic DNA was used to amplify a 1 kb region of the HIV-1 RT proviral DNA by PCR. The PCR product was then cloned into a TOPO® cloning vector. A Millipore Miniprep Kit was used to purify plasmid containing proviral inserts. About 45 positive clones were sequenced in both directions by a Beckman Coulter CEQ 8000. The sequencing results were analyzed and assembled using the DNASTAR Stagman program. Each mutated base was counted and the mutation rate was calculated over the total number of sequenced nucleotides.
Assessment of DHAdC viral mutagenicity was carried out as described above for 5-aza-dC. Mutagenesis of the sense strand of a 0.9 kb fragment of reverse transcriptase of HIV NL4-3 was determined after a single passage in SN1212 (50 μM) and compared to an untreated control.

polymerase-α = molecular target: T1, polymerase-α (Homo sapiens, UniProt P09884); assay: Substrate for cellular polymerase; type: biochemical; settings: data not shown
T1 sequence (P09884 1-1462): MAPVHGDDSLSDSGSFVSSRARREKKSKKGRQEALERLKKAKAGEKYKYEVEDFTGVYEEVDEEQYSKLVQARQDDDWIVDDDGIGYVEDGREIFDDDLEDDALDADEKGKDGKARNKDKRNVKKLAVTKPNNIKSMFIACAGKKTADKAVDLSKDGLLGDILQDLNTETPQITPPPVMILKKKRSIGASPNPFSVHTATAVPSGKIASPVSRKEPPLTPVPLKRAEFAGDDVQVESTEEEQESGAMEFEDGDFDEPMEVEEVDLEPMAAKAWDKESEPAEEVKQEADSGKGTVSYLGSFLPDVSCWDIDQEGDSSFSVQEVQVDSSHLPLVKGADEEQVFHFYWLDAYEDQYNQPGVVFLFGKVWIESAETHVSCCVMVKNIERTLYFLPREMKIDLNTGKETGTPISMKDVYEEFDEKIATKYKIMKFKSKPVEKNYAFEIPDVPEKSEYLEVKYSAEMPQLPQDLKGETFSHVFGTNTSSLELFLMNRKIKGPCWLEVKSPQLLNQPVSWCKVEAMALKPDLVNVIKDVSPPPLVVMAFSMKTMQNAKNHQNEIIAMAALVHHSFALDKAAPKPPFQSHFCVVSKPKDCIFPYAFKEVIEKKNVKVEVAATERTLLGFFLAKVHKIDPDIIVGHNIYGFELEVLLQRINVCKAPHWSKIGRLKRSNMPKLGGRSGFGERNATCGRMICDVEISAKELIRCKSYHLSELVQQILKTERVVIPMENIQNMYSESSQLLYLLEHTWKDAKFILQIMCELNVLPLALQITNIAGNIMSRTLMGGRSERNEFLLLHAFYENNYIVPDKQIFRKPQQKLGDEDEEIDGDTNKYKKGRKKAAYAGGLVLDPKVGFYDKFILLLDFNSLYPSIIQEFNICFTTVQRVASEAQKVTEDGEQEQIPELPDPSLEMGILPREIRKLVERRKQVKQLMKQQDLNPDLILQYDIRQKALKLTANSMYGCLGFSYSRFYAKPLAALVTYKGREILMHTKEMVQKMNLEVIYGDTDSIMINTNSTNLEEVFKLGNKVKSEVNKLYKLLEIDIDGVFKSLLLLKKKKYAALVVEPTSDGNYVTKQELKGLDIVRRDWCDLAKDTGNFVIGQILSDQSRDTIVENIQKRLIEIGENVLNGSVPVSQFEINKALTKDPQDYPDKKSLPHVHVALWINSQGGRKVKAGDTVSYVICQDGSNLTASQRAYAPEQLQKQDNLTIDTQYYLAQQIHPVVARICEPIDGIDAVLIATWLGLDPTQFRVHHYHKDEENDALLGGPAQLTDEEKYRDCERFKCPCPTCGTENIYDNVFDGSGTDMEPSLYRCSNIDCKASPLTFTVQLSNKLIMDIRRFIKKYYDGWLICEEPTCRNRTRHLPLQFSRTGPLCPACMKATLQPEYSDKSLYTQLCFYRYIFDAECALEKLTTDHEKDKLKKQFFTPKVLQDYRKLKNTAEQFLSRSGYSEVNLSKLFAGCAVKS

HIV = HIV infected SCID-Hu mice; type: in vivo
Procedure: as §1

NC1=NC(=O)N([C@H]2C[C@H](O)[C@@H](CO)O2)CN1 [DHAdC, 1-(2-Deoxy-β-D-ribofuranosyl)-4-amino-1,2,5,6-tetrahydro-1,3,5-triazin-2-one]
AUC(0-inf) [1]: 75000 ng·h/mL
mitochondrial toxicity (increase in lactate production or inhibition of mitochondrial DNA) (mitochondrial DNA): does not demonstrate evidence of mitochondrial toxicity
toxicity [2]: without any significant toxicity
C⇄T transitions, fold enhancement [3]: 4.6 fold
mutation rate in HIV RT, fold higher than control [3]: 1.4 fold
A→C C→A mutations ([3]; number of mutations): 1
A→T T→A mutations ([3]; number of mutations): 1
G→A A→G mutations ([3]; number of mutations): 17
G→C C→G mutations ([3]; number of mutations): 3
G→T T→G mutations ([3]; number of mutations): 3
T→C C→T mutations ([3]; number of mutations): 12
mutation rate % ([3]; single passage): 0.015%
mutation rate in HIV RT ([3]; treated, control 0.0011): 0.0015
substrate for polymerase-α (polymerase-α): poor substrate
CD4+ (HIV; 10 mg/kg/day): 13%
CD4+ CD8+ (HIV; 10 mg/kg/day): 70%
CD8+ (HIV; 10 mg/kg/day): 9.5%
HIV-1 RNA (HIV; 10 mg/kg/day): 5.3 log copies/10^6 cells
p24 (HIV; 10 mg/kg/day): 510 pg/10^6 cells
Viral liter (HIV; 10 mg/kg/day, ** p < 0.05): 15.2** viruses/10^6 cells
CD4+ (HIV; 100 mg/kg/day): 10%
CD4+ CD8+ (HIV; 100 mg/kg/day): 63%
CD8+ (HIV; 100 mg/kg/day): 11%
HIV-1 RNA (HIV; 100 mg/kg/day): 5.1 log copies/10^6 cells
Viral liter (HIV; 100 mg/kg/day): 24.9 viruses/10^6 cells
p24 (HIV; 100 mg/kg/day): 570 pg/10^6 cells
